Reference: US20220017483A1, “AMINOPYRIDINE COMPOUND, PREPARATION METHOD THEREFOR AND USE THEREOF” (SICHUAN-KELUN-BIOTECH BIOPHARMACEUTICAL CO., LTD, priority 2018, published 2022)
Read-outs that look alike come from different tables or passages of the source.

Experiments:
[1] = molecular target: T1, A2a receptor cell membrane (human origin) (Homo sapiens, UniProt P29274); assay: Competitive inhibition constant (Ki) for adenosine A2a receptor, [3H]-CGS-21680 radioligand binding; conditions: for Ki(A1)/Ki(A2a): selectivity ratio A1 over A2a
T1 construct: purchased PerkinElmer RBHA2AM400UA
T1 sequence (P29274 whole entry): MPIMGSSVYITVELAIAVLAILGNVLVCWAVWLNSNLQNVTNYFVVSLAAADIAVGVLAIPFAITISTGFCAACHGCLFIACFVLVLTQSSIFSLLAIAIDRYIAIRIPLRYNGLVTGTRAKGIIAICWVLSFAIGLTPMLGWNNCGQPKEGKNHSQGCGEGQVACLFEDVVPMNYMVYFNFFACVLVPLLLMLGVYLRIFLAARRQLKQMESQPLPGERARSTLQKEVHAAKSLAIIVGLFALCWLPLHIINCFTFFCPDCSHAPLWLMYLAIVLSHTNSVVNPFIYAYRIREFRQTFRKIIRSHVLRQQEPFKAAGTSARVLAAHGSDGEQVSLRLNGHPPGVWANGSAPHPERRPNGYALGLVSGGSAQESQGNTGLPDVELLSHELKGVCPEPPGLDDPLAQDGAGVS
Procedure: A2a receptor cell membrane (human origin): PerkinElmer, RBHA2AM400UA
A2a test buffer: 50 mM Tris-HCl, 10 mM MgCl2, 1 mM EDTA, pH7.4
(§1) The A1 receptor cell membrane was diluted to 0.025 μg/μl with the A1 test buffer and the A2a receptor cell membrane was diluted to 0.05 μg/μl with the A2a test buffer to obtain an A1 receptor cell membrane dilution and an A2a receptor cell membrane dilution.
(§2) The tested compound and CGS15943 were gradiently diluted with DMSO. 1 μl test compound, high-value control (0.5% DMSO), low-value control (1000 nM CGS15943) were added to a 96-well plate, wherein each well was added with 100 μl A1 receptor cell membrane dilution (containing 2.5 μg cell membrane) to obtain an A1 detection plate. Through the same steps, 100 μl A2a receptor cell membrane dilution (containing 5.0 μg cell membrane) was added to each well of a 96-well plate to obtain an A2a detection plate.
The A1 and A2a detection plates were sealed with a tap, and incubated at room temperature for 1 h and 2 h, respectively.
(§3) Unifilter-96 GF/C filter plate was prepared. The Unifilter-96 GF/C filter plate was added with 50 μl 0.3% PEI in each well, and incubated at room temperature for no less than 0.5 h.
(§4) After the incubation, the reaction solutions in the A1 detection plate and the A2a detection plate were transferred to two Unifilter-96 GF/C filter plates. The filter plates were washed with the corresponding pre-cooled washing buffers, then oven dried. After sealing the bottom of the filter plates, 50 μl of Microscint 20 cocktail scintillation fluid was added. After sealing the top of the filter plates, the plates were read in the counter MicroBeta2 Reader.
(§5) Data analysis: The inhibition rate was calculated according to the following formula:
(§6) Inhibition rate %=100−(the signal value of the tested wells−the signal average of the low-value control)/(the signal average of the high-value control−the signal average of the low-value control)*100.
(§7) IC50 was fitted by EXCEL XLfit. The competitive inhibition constant (Ki) was calculated according to the formula: Ki=IC50/(1+the concentration of the isotope-labelled ligands/Kd); Kd is the dissociation constant of the isotope-labeled ligands.

[2] = molecular target: T2, A1 receptor cell membrane (human origin) (Homo sapiens, UniProt P30542); assay: Competitive inhibition constant (Ki) for adenosine A1 receptor, [3H]-DPCPX radioligand binding; conditions: [3H]-DPCPX 1.0 nM
T2 construct: purchased PerkinElmer ES-010-M400UA
T2 sequence (P30542 1-326): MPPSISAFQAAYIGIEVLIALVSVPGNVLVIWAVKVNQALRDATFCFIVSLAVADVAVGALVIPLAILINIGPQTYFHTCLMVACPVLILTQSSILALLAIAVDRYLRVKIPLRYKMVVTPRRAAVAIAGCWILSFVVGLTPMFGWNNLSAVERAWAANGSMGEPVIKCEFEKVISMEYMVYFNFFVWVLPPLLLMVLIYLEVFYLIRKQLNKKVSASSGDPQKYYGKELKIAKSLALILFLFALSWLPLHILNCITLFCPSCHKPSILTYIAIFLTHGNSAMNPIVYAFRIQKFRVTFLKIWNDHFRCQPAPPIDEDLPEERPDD
Procedure: Experimental Example 1: Determination of the Competitive Inhibition Constant (Ki) for Adenosine A1 and A2a Receptors
[^3H]-DPCPX: PerkinElmer, NET974250UC
A1 receptor cell membrane (human origin): PerkinElmer, ES-010-M400UA
A1 test buffer: 25 mM HEPES, 5 mM MgCl2, 1 mM CaCl2, 100 mM NaCl, pH7.4
A1 washing buffer: 25 mM HEPES, 5 mM MgCl2, 1 mM CaCl2, 100 mM NaCl, pH7.4
as §1, §2
100 μl of radioisotope-labelled ligand [^3H]-DPCPX (diluted in A1 test buffer, working concentration 1.0 nM) was added to the A1 detection plate, and 100 μl of radioisotope-labelled ligand [^3H]-CGS-21680 (diluted in A2a test buffer, working concentration 6.0 nM) was added to the A2a detection plate. The A1 and A2a detection plates were sealed with a tap, and incubated at room temperature for 1 h and 2 h, respectively.
as §3, §4, §5, §6, §7

[3] = human A2a receptor cell membrane, [3H]-CGS-21680 6.0 nM, read-out: Ki(A2a)

SMILES: Cc1ncnc2ccc(-c3ccc(N)nc3-c3ccc(F)cc3)cc12 [Compound 1, 6-(4-fluorophenyl)-5-(4-methylquinazolin-6-yl)pyridin-2-amine]
- Ki(A1)/Ki(A2a) [1]: 339.0

SMILES: Cc1ncnc2ccc(-c3cc(Br)c(N)nc3-c3ccc(F)cc3)cc12 [Compound 2, 3-bromo-6-(4-fluorophenyl)-5-(4-methylquinazolin-6-yl)pyridin-2-amine]
- Ki [1, 3]: 2.6 nM
- Ki(A1)/Ki(A2a) [1]: 112.1
- Ki [2]: 291 nM

SMILES: COC(=O)c1cc(-c2ccc3ncnc(C)c3c2)c(-c2ccc(F)cc2)nc1N [Compound 3, methyl 2-amino-6-(4-fluorophenyl)-5-(4-methylquinazolin-6-yl) nicotinate]
- Ki [1, 3]: 4.9 nM
- Ki(A1)/Ki(A2a) [1]: 222.8
- Ki [2]: 1090 nM

SMILES: Cc1ncnc2ccc(-c3cc(C(=O)O)c(N)nc3-c3ccc(F)cc3)cc12 [Compound 4, 2-amino-6-(4-fluorophenyl)-5-(4-methylquinazolin-6-yl)nicotinic acid]
- Ki [1, 3]: 25.6 nM
- Ki(A1)/Ki(A2a) [1]: 293.5
- Ki [2]: 7510 nM

SMILES: Cc1ncnc2ccc(-c3cc(C#N)c(N)nc3-c3ccc(F)cc3)cc12 [Compound 5, 2-amino-6-(4-fluorophenyl)-5-(4-methylquinazolin-6-yl) nicotinonitrile]
- Ki [1, 3]: 2.1 nM
- Ki(A1)/Ki(A2a) [1]: 325.3
- Ki [2]: 683 nM

SMILES: CNC(=O)c1cc(-c2ccc3ncnc(C)c3c2)c(-c2ccc(F)cc2)nc1N [Compound 7, 2-amino-6-(4-fluorophenyl)-N-methyl-5-(4-methylquinazolin-6-yl) nicotinamide]
- Ki [1, 3]: 20.2 nM
- Ki(A1)/Ki(A2a) [1]: 245.0
- Ki [2]: 4950 nM

SMILES: Cc1ncnc2ccc(-c3cc(-c4cnn(C)c4)c(N)nc3-c3ccc(F)cc3)cc12 [Compound 8, 6-(4-fluorophenyl)-3-(1-methyl-1H-pyrazol-4-yl)-5-(4-methylquinazolin-6-yl)pyridin-2-amine]
- Ki [1, 3]: 4.8 nM
- Ki(A1)/Ki(A2a) [1]: 148.5
- Ki [2]: 713 nM

SMILES: Cc1ncnc2ccc(-c3cc(-c4nnn[nH]4)c(N)nc3-c3ccc(F)cc3)cc12 [Compound 9, 6-(4-fluorophenyl)-5-(4-methylquinazolin-6-yl)-3-(1H-tetrazol-5-yl) pyridin-2-amine]
- Ki [1, 3]: 12.6 nM
- Ki(A1)/Ki(A2a) [1]: 85.3
- Ki [2]: 1070 nM

SMILES: Cc1ncnc2ccc(-c3c(Cl)cc(N)nc3-c3ccc(F)cc3)cc12 [Compound 10, 4-chloro-6-(4-fluorophenyl)-5-(4-methylquinazolin-6-yl)pyridin-2-amine]
- Ki [1, 3]: 2 nM
- Ki(A1)/Ki(A2a) [1]: 219.0
- Ki [2]: 438 nM

SMILES: Cc1ncnc2ccc(-c3c(C#N)cc(N)nc3-c3ccc(F)cc3)cc12 [Compound 11, 6-amino-2-(4-fluorophenyl)-3-(4-methylquinazolin-6-yl) isonicotinonitrile]
- Ki [1, 3]: 1.4 nM
- Ki(A1)/Ki(A2a) [1]: 146.5
- Ki [2]: 205 nM

SMILES: Cc1ncnc2ccc(-c3cc(C(N)=O)c(N)nc3-c3cc(F)cc(F)c3)cc12 [Compound 12, 2-amino-6-(3,5-difluorophenyl)-5-(4-methylquinazolin-6-yl) nicotinamide]
- Ki [1, 3]: 6.8 nM
- Ki(A1)/Ki(A2a) [1]: 54.9
- Ki [2]: 374 nM

SMILES: Cc1ncnc2ccc(-c3cc(C(N)=O)c(N)nc3-c3ccccc3F)cc12 [Compound 13, 2-amino-6-(2-fluorophenyl)-5-(4-methylquinazolin-6-yl) nicotinamide]
- Ki [1, 3]: 12.2 nM
- Ki(A1)/Ki(A2a) [1]: 359.0
- Ki [2]: 4380 nM

SMILES: Cc1ncnc2ccc(-c3cc(-c4cnn(CCN(C)C)c4)c(N)nc3-c3ccc(F)cc3)cc12 [Compound 16, 3-(1-(2-(dimethylamino)ethyl)-1H-pyrazol-4-yl)-6-(4-fluorophenyl)-5-(4-methylquinazolin-6-yl)pyridin-2-amine]
- Ki [1, 3]: 16.7 nM
- Ki(A1)/Ki(A2a) [1]: 82.6
- Ki [2]: 1380 nM

SMILES: COCCn1cc(-c2cc(-c3ccc4ncnc(C)c4c3)c(-c3ccc(F)cc3)nc2N)cn1 [Compound 17, 6-(4-fluorophenyl)-3-(1-(2-methoxyethyl)-1H-pyrazol-4-yl)-5-(4-methylquinazolin-6-yl)pyridin-2-amine]
- Ki [1]: 2.3 nM
- Ki(A1)/Ki(A2a) [1]: 137.3
- Ki [2]: 316 nM
